# Publication PMC12535076, “Neurotherapeutic effects of Vutiglabridin as a Paraoxonase-2 modulator in preclinical models of Parkinson’s disease” (Molecular Neurodegeneration, 2025)
# Legend:
# [1] = system: primary cultured astrocytes; assay: Intracellular H2O2 (oROS-G sensor) in 6-OHDA-treated astrocytes; type: cell-based
# Method: Intracellular H2O2 levels in astrocytes were measured using a genetically encoded oROS-G plasmid, which is highly sensitive and specific for H2O2 with rapid on-and-off kinetics. The plasmid was generously provided by Dr. Andre Berndt and was cloned under the GFAP104 promoter. Transfection into primary cultured hippocampal astrocytes was carried out using the NeoNTM transfection system (Invitrogen). Astrocytes were seeded into 96-well black plates (ibidi, USA) and treated with 6-OHDA (10 µM) in the presence of 1, 10, and 30 µM of Vuti. Fluorescence changes were monitored using a Nikon A1 confocal microscope over a period of 21 h for live cell imaging. The fluorescence intensity for each region of interest (ROI) was analyzed using Nikon software, and the data were normalized to control values for the IC50. The IC50 value for Vuti was determined using GraphPad Prism software.
# shPON2-SH-SY5Y cells = assay: Mitochondrial activity in PON2 knockdown (shPON2) and shSCR SH-SY5Y cells treated with MPP+; type: cell-based, human
# Method: Human SH-SY5Y neuroblastoma cells (ATCC® (CRL-2266™; Manassas, VA, USA) were first cultured in Dulbecco’s Modified Eagle Medium (DMEM)/F12 supplemented with 10% fetal bovine serum (FBS), 100 U/mL penicillin, and 100 µg/mL streptomycin (complete media, CM) at 37 °C with 5% CO2. Cells (5 × 10^4 cells/well) then were cultured in 96-well plates for 24 h followed by incubation in serum-deficient media (SDM, culture media containing 0.5% FBS) for 16 h. Quiescent cells in SDM were incubated with 1 mM MPP^+ or dimethyl sulfoxide (DMSO) vehicle for 24 h, then treated with Vuti at the designated doses for 24 h. The treated cells were harvested according to the purpose and analyzed.
# Lentiviral PON2 shRNA (h) (sc-62838) was purchased from Santa Cruz Co. (Santa Cruz, CA, USA). shRNA lentiviral particle transduction was performed according to the manufacturer’s protocol. Total RNA was isolated with a Trizol reagent (Invitrogen, Carlsbad, CA, USA). […] PON2 knockdown was verified by quantitative PCR, and the primers and methods used are described in the supplementary material.
# A systemic cell-based mitochondrial function analysis system was established using SH-SY5Y cells in 96-well plates based on fluorescence detection methods as described previously. The assay system covers quantitative assays for methyl thiazyl tetrazolium-mitochondrial dehydrogenase activity (MTT), TMRE-based mitochondrial membrane potential (TMRE), ATP contents, and ROS of cells. […] Fluorescence intensities at 550 nm/580 nm for TMRE, at 510 nm/580 nm MitoSOX, or at 494 nm/522 nm for DCF-DA were normalized by Hoechst intensity at 355 nm/480 nm (Spectramax Gemini EM, Molecular Devices, Sunnyvale, CA, USA).
# Endogenous OCR was measured in adherent SH-SY5Y cells using a Seahorse XF-24 Analyzer (Seahorse Bioscience, Billerica, MA, USA) following the manufacturer’s protocol with minor modifications. […] The OCR was calculated from 3-min measurement cycles and normalized to cell number.
# PON2 = biological target: T1, PON2 (Mus musculus, UniProt Q62086); assay: PON2 activity assay (esterase and lactonase) in A53T-infected astrocytes; type: cell-based; conditions: primary cultured astrocytes infected with A53T virus, Vuti 24 h
# T1 construct: we infected a primary cultured cortical astrocytes with AAV-CMV-αsyn-A53T virus; endogenous in cells; host or cells: primary cultured cortical astrocytes infected with AAV-CMV-αsyn-A53T
# Method: To assess PON2 activity following Vuti treatment, we infected a primary cultured cortical astrocytes with AAV-CMV-αsyn-A53T virus. Five days post-infection, we treated the cells with Vuti for 24 h and conducted esterase and lactonase assays. For the esterase activity evaluation, reactions were initiated by adding 1 mM p-nitrophenyl acetate (pNPA) to the PON2 activity assay buffer. Enzymatic hydrolysis was monitored by measuring the absorbance at 412 nm. For lactonase activity, the reactions were initiated with 1 mM thio-butyrolactone (TBBL) and 1 mM 5,5’-dithiobis(2-nitrobenzoic acid) (DTNB) in the PON2 activity assay buffer, with absorbance measured at 420 nm to monitor enzymatic hydrolysis.
smiles,measurement,setting,value
"CCOc1ccc(C2COc3c(ccc4c3CCC(C)(C)O4)C2)c(O)c1 (stereo not drawn) [Vuti, Vutiglabridin]",ROS levels in 6-OHDA-treated astrocytes,[1]; 30 µM Vuti,significantly reduced ROS levels
same,IC50,"[1]; Astrocyte, 6-OHDA 10 µM treated primary cultured astrocytes, Vuti 1, 10, 30 µM, read-out: normalized IC50 (ROS, oROS-G sensor imaging)",21 µM
same,MPP+-induced mitochondrial damages in shSCR cells,"shPON2-SH-SY5Y cells; control scrambled shRNA cells, 1 mM MPP+ then 1 nM Vuti",significantly restored
same,"OCR (basal respiration, ATP turnover rate, maximum respiratory capacity) in shPON2 cells","shPON2-SH-SY5Y cells; shPON2 cells, 1 mM MPP+ 20 h then 1 nM Vuti 24 h",failed to restore
same,"effects on mitochondria function (MTT, ATP content, TMRE, DCF-DA-ROS, MitoSOX-ROS) in shPON2 cells","shPON2-SH-SY5Y cells; shPON2 infected cells, 1 mM MPP+ 20 h then 1 nM Vuti 24 h",considerably reduced or almost completely abolished
same,PON2 esterase and lactonase activities,PON2,increased
